US20240358015A1, “HERBICIDAL COMPOSITIONS” (Agrematch Ltd., priority 2021, published 2024)

Tests used:
Format in all cases: in vivo
[1] = system: Amaranthus palmeri; assay: Growth-chamber post-emergence assay (Example 8)
Procedure: (§1) Herbicidal activity of Compounds 1B, 3, 4, 5 and 6 was determined by post-emergence application on 8-day old plants (weeds) of the Amaranthus palmeri and Setaria viridis species that were grown at 16 hours/8 hours day/night cycles at 30° C./25° C., respectively. Leaf stage was typically 4-6 for A. palmeri and 3-4 for S. viridis.
(§2) In each treatment, between 1 to 4 pots (8×12 cm), containing about 6 Amaranthus palmeri or Setaria viridis plants, were sprayed using a VL-SET Paasche Airbrush with a 1 ml-solution containing 0.250-2 mg/ml of the tested compound, which is equivalent to about 250-2000 g/ha.
(§3) Damage assessment: Herbicidal activity was assessed and scored 3-4 days after application by visual inspection of the plants in comparison to plants treated with the formulation alone (with no active ingredient) as control. Activity score is in the range of 0 to 100, where 0 represents no herbicidal activity like control plants and 100 represents the maximal herbicidal activity (i.e., total death of the plant).

[2] = system: Setaria viridis; assay: Growth-chamber post-emergence assay (Example 8)
Procedure: as §1, §2, §3

[3] = system: Amaranthus palmeri; assay: Growth-chamber post-emergence herbicidal assay (Example 2)
Procedure: (§4) Herbicidal activity was determined by post-emergence application on 8-day old plants (weeds) of the Amaranthus palmeri and Setaria viridis species that were grown at 16 hours/8 hours day/night cycles at 30° C./25° C., respectively. Leaf stage was typically 4-6 for A. palmeri and 3-4 for S. viridis.
(§5) In each treatment, 2-3 pots, each containing about 5 plants each (for Setaria viridis), and one 9-pack, containing about 9 plants (for Amaranthus palmeri), were sprayed using a VL-SET Paasche Airbrush with 0.3-1.5 ml solution containing 0.125-2 mg/ml of a tested compound, which is equivalent to about 125-2000 g/ha.
as §3
Formulation design: Compounds were tested on A. Palmeri in various formulations, and in varying concentrations for each of the tested formulations, in order to determine optimal conditions for its application and performance. Activity scores were determined as described hereinabove. Solubility scores were determined by visual inspection on a scale of 1-10, with 10 representing complete solubilization and 1 represents nullified solubilization.
Each of the obtained solution was then mixed with different adjuvants and applied at a rate equivalent to 500 g/ha for A. palmeri and 1000 g/ha for S. viridis. Herbicidal activity scores 3-4 days after application are presented Table 3 below.

[4] = system: Setaria viridis; assay: as above
Procedure: as §4, §5, §3
Herbicidal activity scores 3-4 days after application are presented Table 3 below.

[5] = 250 g/ha, 2% MIPA, 2% DMSO, 0.25% Genapol, 2% HASTEN
[6] = 500 g/ha, 2% MIPA, 2% DMSO, 0.25% Genapol, 2% HASTEN
[7] = 1000 g/ha, 2% MIPA, 2% DMSO, 0.25% Genapol, 2% HASTEN, 3-4 days after application, scale 0-100
[8] = 1000 g/ha, 8.6% Acetophenone, 1% TWEEN 80, 1.4% NMP, 0.5% ECO, 0.5% Ca-LAS, 0.05% Break-Thru
[9] = 250 g/ha, 10% Acetone, 1.85% MIPA, 5% DMSO, 0.23% Genapol, 1.85% HASTEN
[10] = 500 g/ha, 10% Acetone, 1.7% MIPA, 5% DMSO, 0.85% TWEEN20, 1.7% HASTEN
[11] = 1000 g/ha, 2% MIPA, 2% DMSO, 1% TWEEN20, 2% HASTEN
[12] = 2000 g/ha, 2% MIPA, 2% DMSO, 1% TWEEN20, 2% HASTEN
[13] = 2000 g/ha, 8.6% Acetophenone, 2% TWEEN 20, 1.4% NMP, 0.5% ECO, 0.5% Ca-LAS, 0.05% Break-Thru
[14] = 250 g/ha, 14% Acetone, 2% MIPA, 5% DMSO, 1% TWEEN20, 2% HASTEN
[15] = 330 g/ha, 5% Acetone, 2% MIPA, 2.5% DMSO, 0.25% Genapol, 2% HASTEN
[16] = 330 g/ha, 10% Acetone, 0.8% MIPA, 5% DMSO, 0.25% Genapol, 2% HASTEN
[17] = 330 g/ha, 10% Acetone, 2% MIPA, 5% DMSO, 0.25% Genapol, 2% HASTEN
[18] = 500 g/ha, 18.5% Acetone, 2% MIPA, 5% DMSO, 1% TWEEN20, 2% HASTEN
[19] = 2000 g/ha, 2% MIPA, 1% TWEEN20, 2% HASTEN

## O=C(O)c1cc(O)c2c(c1)C(=O)c1cccc(O[C@@H]3O[C@H](CO)[C@@H](O)[C@H](O)[C@H]3O)c1C2=O [Compound 1B, Rhein 8-glucoside]
[1]; [5]
  Herbicidal activity score: 85
[1]; [6]
  Herbicidal activity score: 100
[1]; [7]
  Herbicidal activity score: 100
[2]; [5]
  Herbicidal activity score: 70
[2]; [6]
  Herbicidal activity score: 95
[2]; [7]
  Herbicidal activity score: 90
[3]; 500 g/ha, 2% TWEEN 20, 0.05M Tris buffer pH 8.3, 0.05% Break-Thru
  Activity Score: 30
[3]; 750* g/ha (rate adjusted to reflect that of the Rhein actual active ingredient), 2% TWEEN 20, 5.7 mM MIPA, 0.05% Break-Thru
  Activity Score: 70
[4]; 750* g/ha (rate adjusted to reflect that of the Rhein actual active ingredient), 1% Eta-70, 5.7 mM MIPA, 0.05% Break-Thru
  Activity Score: 50

## O=C(O)c1ccc2c(c1)C(=O)c1ccccc1C2=O [Compound 2]
[3]; 500 g/ha, 4.3% Acetophenone, 1% TWEEN 80, 0.7% NMP, 0.25% ECO, 0.25% Ca-LAS, 0.05% Break-Thru
  Activity Score: 100
[3]; [8]
  Activity Score: 95
[3]; 2000 g/ha, 2% DMSO, 1% TWEEN 80, 0.05M Tris buffer pH 8, 0.05% Break-Thru
  Activity Score: 100
[4]; 1500 g/ha, 2% DMSO, 1% TWEEN 80, 0.05M Tris buffer pH 8, 0.05% Break-Thru
  Activity Score: 40

## COC(=O)c1ccc2c(c1O)C(=O)c1ccccc1C2=O [Compound 3]
[1]; [9]
  Herbicidal activity score: 91
[1]; [10]
  Herbicidal activity score: 99
[1]; [11]
  Herbicidal activity score: 95
[1]; [12]
  Herbicidal activity score: 95
[2]; [9]
  Herbicidal activity score: 63
[2]; [10]
  Herbicidal activity score: 88
[2]; [11]
  Herbicidal activity score: 95
[2]; [12]
  Herbicidal activity score: 100
[3]; [13]
  Activity Score: 80
[4]; [13]
  Activity Score: 10

## O=C1c2ccccc2C(=O)c2cc(CO)ccc21 [Compound 4]
[1]; [9]
  Herbicidal activity score: 85
[1]; [14]
  Herbicidal activity score: 90
[1]; [15]
  Herbicidal activity score: 88
[1]; [16]
  Herbicidal activity score: 93
[1]; [17]
  Herbicidal activity score: 80
[1]; [18]
  Herbicidal activity score: 95
[2]; [9]
  Herbicidal activity score: 45
[2]; [14]
  Herbicidal activity score: 90
[2]; [15]
  Herbicidal activity score: 80
[2]; [16]
  Herbicidal activity score: 75
[2]; [17]
  Herbicidal activity score: 88
[2]; [18]
  Herbicidal activity score: 50
[3]; [8]
  Activity Score: 95
[3]; 1500 g/ha, 8.6% Acetophenone, 4% TWEEN 20, 1.4% NMP, 0.5% ECO, 0.5% Ca-LAS, 0.05% Break-Thru
  Activity Score: 95
[4]; 1500 g/ha, 6% DMSO, 0.05% Break-Thru
  Activity Score: 40

## Cc1cc(O)c2c(c1)C(=O)c1cc(O)cc(O)c1C2=O [Compound 5]
[1]; [11]
  Herbicidal activity score: 95
[1]; [19]
  Herbicidal activity score: 100
[2]; [11]
  Herbicidal activity score: 75
[2]; [19]
  Herbicidal activity score: 90
[3]; [13]
  Activity Score: 70

## O=C1c2ccccc2C(=O)c2c(O)cccc21 [Compound 6]
[1]; [14]
  Herbicidal activity score: 10
[1]; [18]
  Herbicidal activity score: 70
[1]; [11]
  Herbicidal activity score: 70
[1]; [12]
  Herbicidal activity score: 90
[2]; [14]
  Herbicidal activity score: 90
[2]; [18]
  Herbicidal activity score: 40
[2]; [11]
  Herbicidal activity score: 90
[2]; [12]
  Herbicidal activity score: 95
[3]; 1500 g/ha, 8.6% Acetophenone, 1% TWEEN 80, 1.4% NMP, 0.5% ECO, 0.5% Ca-LAS, 0.05% Break-Thru
  Activity Score: 75
[4]; [8]
  Activity Score: 80

## Nc1ccc(O)c2c1C(=O)c1ccccc1C2=O [Compound 7]
[3]; [13]
  Activity Score: 40
